According to PMC9694130, “Design, Preparation, Characterization and Evaluation of Five Cocrystal Hydrates of Fluconazole with Hydroxybenzoic Acids” (Pharmaceutics, 2022):

Key:
[1] = cited from earlier work; for aqueous solubility of CCFs in water: water at 25 °C, no reference given
[2] = Accelerated stability test (PXRD); type: physicochemical; conditions: for stability under high temperature: high temperature (60 ± 1 °C), phase changes reported after 5 days
Experimental: Approximately 50 mg of powdered samples were stored under the three test conditions and measured at regular time intervals (0, 5, and 10 days) by PXRD.

[3] = Apparent powder dissolution in ultrapure water; type: physicochemical; conditions: 37 °C, 100 rpm, rank among the three cocrystal hydrates
Experimental: Sampling was conducted by withdrawing 1 mL aliquot of the sample at time intervals of 5, 10, 15, 20, 30, 45, 60, 90, and 120 min from the vessel and filtered through a 0.45 μm syringe tip filter, and the aliquots were assayed on a high-performance liquid chromatography (HPLC) system. The measurements of the powder dissolution rate were repeated in triplicate.
(§1) The HPLC (Agilent Technologies, Santa Clara, USA) system was equipped with a UV detector and an Agilent Eclipse XDB−C18 (250 mm × 4.6 mm, 5 μm) column with the temperature set to 30 °C. The mobile phase consisted of acetonitrile and water (25:75, v:v) with a flow rate of 1.0 mL min^−1. The injection volume was 10 μL and the detection wavelength was set to 261 nm.

[4] = Intrinsic dissolution rate (IDR) in ultrapure water; type: physicochemical; conditions: 37 °C; for order of intrinsic dissolution rate: ultrapure water, 100 rpm, rank among the three cocrystal hydrates
Experimental: The resulting disk has a flat surface of 0.5 cm^2. Then, the disk was dipped into a vessel containing 900 mL ultrapure water at 37 ± 0.2 °C, with the paddle rotating at 100 rpm. At time intervals (60, 75, 90, 120, 150, 180, 210, 240, 270, and 300 min), 1 mL of the dissolution medium was withdrawn manually. After filtration through a 0.45 μm syringe tip filter, the aliquots were assayed on an HPLC system. Each experiment was repeated in triplicate.
as §1

| stability under high temperature ([2]; PXRD at 0, 5 and 10 days) | SMILES | aqueous solubility of CCFs in water [1] [mg/mL] | order of apparent dissolution rate [3] | order of intrinsic dissolution rate [4] | further results |
| --- | --- | --- | --- | --- | --- |
|  | O=C(O)c1ccc(O)cc1O [24DHB, 2,4-dihydroxybenzoic acid] | 8 |  |  |  |
|  | O=C(O)c1ccc(O)c(O)c1 [34DHB, 3,4-dihydroxybenzoic acid] | 29 |  |  |  |
|  | O=C(O)c1cc(O)cc(O)c1 [35DHB, 3,5-dihydroxybenzoic acid] | 84 |  |  |  |
| converted to FLZ form II | O.OC(Cn1cncn1)(Cn1cncn1)c1ccc(F)cc1F [FLZ monohydrate, reference compound] |  |  |  |  |
|  | OC(Cn1cncn1)(Cn1cncn1)c1ccc(F)cc1F [FLZ, 2-(2,4-difluorophenyl)-1,3-di(1H-1,2,4-triazol-1-yl)propan-2-ol, reference compound] |  |  |  | aqueous solubility ([1]; FLZ form II): 2 to 8 mg/mL |
| stable | O.O=C(O)c1ccc(O)c(O)c1.OC(Cn1cncn1)(Cn1cncn1)c1ccc(F)cc1F [FLZ−34DHB−H2O (1:1:1)] |  | FLZ−35DHB−H2O (1:1:1) > FLZ−34DHB−H2O (1:1:1) > FLZ−24DHB−H2O (1:0.5:1) | FLZ−35DHB−H2O (1:1:1) > FLZ−34DHB−H2O (1:1:1) > FLZ−24DHB−H2O (1:0.5:1) | hygroscopicity relative to FLZ ([2]; compared with commercialized FLZ form II): significantly reduces hygroscopicity; stability under high humidity ([2]; high humidity (90 ± 5%, 25 °C), PXRD at 0, 5 and 10 days): stable; stability under illumination ([2]; illumination (4500 ± 500 lx, 25 °C), PXRD at 0, 5 and 10 days): stable |
| forming an anhydrous form | O.O=C(O)c1cc(O)cc(O)c1.OC(Cn1cncn1)(Cn1cncn1)c1ccc(F)cc1F [FLZ−35DHB−H2O (1:1:1)] |  | FLZ−35DHB−H2O (1:1:1) > FLZ−34DHB−H2O (1:1:1) > FLZ−24DHB−H2O (1:0.5:1) | FLZ−35DHB−H2O (1:1:1) > FLZ−34DHB−H2O (1:1:1) > FLZ−24DHB−H2O (1:0.5:1) | IDR compared with FLZ form II ([4]; ultrapure water 900 mL, paddle 100 rpm, disk 0.5 cm^2): higher IDR |

| SMILES | stability under high temperature ([2]; PXRD at 0, 5 and 10 days) | aqueous solubility of CCFs in water [1] [mg/mL] | order of apparent dissolution rate [3] | order of intrinsic dissolution rate [4] | further results |
| --- | --- | --- | --- | --- | --- |
| O.O.O=C(O)c1ccc(O)cc1O.OC(Cn1cncn1)(Cn1cncn1)c1ccc(F)cc1F.OC(Cn1cncn1)(Cn1cncn1)c1ccc(F)cc1F [FLZ−24DHB−H2O (1:0.5:1)] | converted to the physical mixture of amorphous and crystalline phases |  | FLZ−35DHB−H2O (1:1:1) > FLZ−34DHB−H2O (1:1:1) > FLZ−24DHB−H2O (1:0.5:1) | FLZ−35DHB−H2O (1:1:1) > FLZ−34DHB−H2O (1:1:1) > FLZ−24DHB−H2O (1:0.5:1) |  |
| O.O.O=C(O)c1ccc(O)c(O)c1.OC(Cn1cncn1)(Cn1cncn1)c1ccc(F)cc1F.OC(Cn1cncn1)(Cn1cncn1)c1ccc(F)cc1F [FLZ−34DHB−H2O (1:0.5:1)] | converted to the physical mixture of amorphous and crystalline phases |  |  |  |  |
